Patent US6790971B1, “19-Nor-steroids” (Aventis Pharma S.A., priority 1989, dated 2004)

Assays:
[1] = target: T1, Glucocorticoid Receptor of Rat Thymus (Rattus norvegicus, UniProt P06536); test: Relative affinity of the bond, glucocorticoid receptor (tritiated dexamethasone displacement); assay type: binding; details: RAB=100(CH)/(CX); for Relative affinity of the bond (RAB), Glucocoticoid, 4 H: incubation 4 H at 0° C.; for Relative affinity of the bond (RAB), Glucocoticoid, 24 H: incubation 24 H at 0° C.
T1 construct: The thymuses were removed and homogenized at 0° C; from tissue; host or cells: thymus cytosol (105,000 g supernatant) of adrenalectomised male Sprague-Dawley rats
T1 sequence (P06536 1-795): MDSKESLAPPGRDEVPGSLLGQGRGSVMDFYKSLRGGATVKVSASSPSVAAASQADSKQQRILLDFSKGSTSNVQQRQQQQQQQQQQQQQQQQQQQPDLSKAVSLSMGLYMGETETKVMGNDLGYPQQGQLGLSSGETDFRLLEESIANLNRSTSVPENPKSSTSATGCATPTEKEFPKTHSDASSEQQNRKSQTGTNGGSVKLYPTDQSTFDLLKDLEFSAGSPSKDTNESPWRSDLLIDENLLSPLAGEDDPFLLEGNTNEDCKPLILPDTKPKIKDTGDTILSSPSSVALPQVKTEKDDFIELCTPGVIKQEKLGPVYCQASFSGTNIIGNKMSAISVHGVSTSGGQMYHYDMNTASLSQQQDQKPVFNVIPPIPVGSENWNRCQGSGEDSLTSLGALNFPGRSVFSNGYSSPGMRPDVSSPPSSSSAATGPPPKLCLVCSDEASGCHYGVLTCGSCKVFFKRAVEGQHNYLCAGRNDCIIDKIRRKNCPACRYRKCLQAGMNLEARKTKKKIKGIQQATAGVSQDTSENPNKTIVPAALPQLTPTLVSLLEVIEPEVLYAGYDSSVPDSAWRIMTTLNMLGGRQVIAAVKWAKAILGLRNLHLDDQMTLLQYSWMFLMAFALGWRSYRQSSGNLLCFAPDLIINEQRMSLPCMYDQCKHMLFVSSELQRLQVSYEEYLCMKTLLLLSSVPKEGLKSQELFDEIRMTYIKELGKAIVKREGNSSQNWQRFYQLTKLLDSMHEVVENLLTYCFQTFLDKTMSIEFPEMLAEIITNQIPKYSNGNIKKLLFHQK
Experimental: Glucocorticoid Receptor of Rat Thymus:
Male Sprague Dawley EOPS rats weighing 160 to 200 g were subjected to suprarenalectomy and 4 to 8 days after this intervention, the animals were killed. The thymuses were removed and homogenized at 0° C. in a 10 mM Tris, 0.25 M saccharose, 2 mM dithiothreitol, HCL pH 7.4 buffer, with the aid of a Potter polytetrafluoroethylene-glass (1 g of tissue for 10 ml of TS). The homogenate was subsequently ultracentrifuged (105,000 g×90 min) at 0° C. and aliquots of the supernatant were incubated at 0° C. for a time (t) with a constant concentration (T) of tritiated dexamethasone in the presence of increasing concentrations (0-2,500.10^−9 M) either of cold dexamethasone, or of cold product to be tested. The concentration (B) of the bound tritiated dexamethasone was measured in each incubate by the adsorption technique on dextran carbon.
(§1) Calculation of the Relative Affinty of the Bond
(§2) The calculation of the Relative Affinity of the Bond (RAB) was identical for all the receptors. The following 2 curves were traced; the percentage of the bound tritiated hormone [formula]
(§3) was a function of the logarithm of the concentration of the cold reference hormone and [formula]
(§4) as a function of the logarithm of the concentration of the cold product tested.
(§5) One determined the straight line of the equation [formula]
(§6) The intersections of the straight line I50 and of the curves make it possible to evaluate the concentrations of the cold reference hormone (CH) and of the tested cold product (CX) which inhibit to an extend of 50% the binding of the tritiated hormone upon the receptor. The relative affinity of the bond (RAB) of the tested product is determined by the equation

[2] = target: T2, Estrogenic Receptor of Mouse Uterus (Mus musculus, UniProt P19785); test: Relative affinity of the bond, estrogen receptor (tritiated estradiol displacement); assay type: binding; details: for affinity for the estrogen receptors: at the second time (incubation); for Relative affinity of the bond (RAB), Oestrogen, 2 H: incubation 2 H at 0° C.; for Relative affinity of the bond (RAB), Oestrogen, 2 H / Relative affinity of the bond (RAB), Oestrogen, 6 H: RAB=100(CH)/(CX); for Relative affinity of the bond (RAB), Oestrogen, 6 H: incubation 6 H (second time)
T2 construct: their uteri were removed, then homogenized at 0° C; from tissue; host or cells: uterine cytosol (105,000 g supernatant) of immature female mice
T2 sequence (P19785 1-599): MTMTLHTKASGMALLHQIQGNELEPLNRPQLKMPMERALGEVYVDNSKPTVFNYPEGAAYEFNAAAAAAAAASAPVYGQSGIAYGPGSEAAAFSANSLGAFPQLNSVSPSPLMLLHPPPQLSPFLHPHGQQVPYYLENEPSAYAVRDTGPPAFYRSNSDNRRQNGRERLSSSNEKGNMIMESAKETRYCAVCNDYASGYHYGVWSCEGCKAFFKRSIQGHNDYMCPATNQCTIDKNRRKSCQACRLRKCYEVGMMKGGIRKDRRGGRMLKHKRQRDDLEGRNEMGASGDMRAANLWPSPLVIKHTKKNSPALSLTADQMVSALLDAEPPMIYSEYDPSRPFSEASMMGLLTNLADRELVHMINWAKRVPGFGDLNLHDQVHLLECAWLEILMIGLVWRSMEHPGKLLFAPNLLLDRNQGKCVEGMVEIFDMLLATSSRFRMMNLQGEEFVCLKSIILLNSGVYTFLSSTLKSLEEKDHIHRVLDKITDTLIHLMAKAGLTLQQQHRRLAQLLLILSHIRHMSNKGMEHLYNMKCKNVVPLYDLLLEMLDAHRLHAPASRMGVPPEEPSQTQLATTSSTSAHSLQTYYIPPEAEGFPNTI
Experimental: Estrogenic Receptor of Mouse Uterus:
Impuberal female mice aged from 18 to 21 days were killed and their uteri were removed, then homogenized at 0° C. with the aid of a Potter teflon-glass in a TS buffered solution (10 mM Tris, 0.25 M saccharose, HCL pH 7.4) (1 g of tissue for 25 ml of TS). The homogenate was ultracentrifuged (105,000 g×90 min) at 0° C. and aliquots of the supernatant were incubated at 0° C. or at 25° C. for a time (t) with a constant concentration (T) of tritiated estradiol in the presence of increasing concentrations (0-1000×10^−9 M) either of cold estradiol, or of the cold product to be tested. The concentration (B) of bound tritiated estradiol was measured in each incubate by the technique of adsorption on dextran carbon.
as §1, §2, §3, §4, §5, §6

Row | Compound | Relative affinity of the bond (RAB), Glucocoticoid, 4 H [1] | Relative affinity of the bond (RAB), Glucocoticoid, 24 H [1] | affinity for the estrogen receptors [2] | Relative affinity of the bond (RAB), Oestrogen, 2 H [2] | Relative affinity of the bond (RAB), Oestrogen, 6 H [2]
1 | CCCCN(C)C(=O)CCCCCCCCCC[C@H]1C[C@]2(C)[C@@H](O)CC[C@H]2[C@@H]2CCc3cc(O)ccc3[C@@H]12 [Example 13, N-Butyl-3,17β-Dihydroxy-N-Methyl-11β-Δ^1,3,5(10)-Estratriene-Undecanamide] | 7 | 7 | marked affinity | 0.13 | 27
2 | CC(C)N(C)C(=O)CCCCCCCCCC[C@H]1C[C@]2(C)[C@@H](O)CC[C@H]2[C@@H]2CCc3cc(O)ccc3[C@@H]12 [Example 16, 3,17β-dihydroxy-N-methyl-N-isopropyl-11β-Δ^1,3,5(10)-estratriene undecanamide] | 12 | 11 | marked affinity | 0.6 | 60
3 | CN(Cc1ccccc1)C(=O)CCCCCCCCCC[C@H]1C[C@]2(C)[C@@H](O)CC[C@H]2[C@@H]2CCC3=CC(=O)CCC3=C12 [Example 17, N-benzyl-17β-hydroxy-N-methyl-3-oxo-11β-Δ^4,9-estradiene undecanamide] | 3 | 6 |  | 0.1 | 0.01
4 | CN(C)CCN(C)C(=O)CCCCCCCCCC[C@H]1C[C@]2(C)[C@@H](O)CC[C@H]2[C@@H]2CCC3=CC(=O)CCC3=C12 [Example 19, N-[2-(dimethylamino)-ethyl]-17β-hydroxy-N-methyl-3-oxo-11β-Δ^4,9-estradiene undecanamide] | 6 | 4.6 |  | 0.3 | 0.8
5 | CC#C[C@]1(O)CC[C@H]2[C@@H]3CCC4=CC(=O)CCC4=C3[C@@H](CCCCCCCCCCC(=O)NCCCC)C[C@@]21C [Example 22, N-butyl-17β-hydroxy-3-oxo-17α-(1-propynyl)-11β-Δ^4,9-estradiene undecanamide] | 7 | 14 |  | 0.01 | 0.01
6 | CCCCN(C)C(=O)CCCCCCCCCCC[C@H]1C[C@]2(C)[C@@H](O)CC[C@H]2[C@@H]2CCc3cc(O)ccc3[C@@H]12 [Example 24, N-butyl-3,17β-dihydroxy-N-methyl-11β-Δ^1,3,5(10)-estratriene dodecanamide] | 2 | 3 |  | 0.02 | 13
7 | N-butyl-3,17β-dihydroxy-N-methyl-19-nor-11β-Δ^1,3,5(10)-pregnatrien-20-yn undecanamide [Example 21] | 2 | 2.6 |  | 0.06 | 7.4
